Data taken from US20230117777A1, “METHYLATION OF MCL-1 COMPOUNDS” (Amgen Inc., priority 2020, published 2023).

Assay: Moisture sorption profile (DVS)
Format: physicochemical
Conditions: by 95% RH; FIG. 6
Experimental: Moisture Sorption: Moisture sorption data was collected using a Surface Measurement Systems DVSAdvantage instrument. Equilibrium criteria were set at ±0.001% weight change in 10 minutes with a maximum equilibrium time of 360 minutes.

Compound: CO[C@]1(CN2CCN3CCCC[C@@H]3C2)/C=C/C[C@H](C)[C@@H](C)S(=O)(=O)NC(=O)c2ccc3c(c2)N(C[C@@H]2CC[C@H]21)C[C@@]1(CCCc2cc(Cl)ccc21)CO3 [crystalline hydrate form of compound A]
- weight gain (moisture sorption profile): 3.3%
